We go through 26 molecules from US20250122160A1, “PROTEIN TYROSINE PHOSPHATASE INHIBITORS AND METHODS OF USE THEREOF” (Calico Life Sciences LLC, priority 0001, published 2025).

Each structure is given as a SMILES string. Bounds are passed on as bounds.

The target of assay [1] is T1, His tagged full-length PTPN1 protein (Homo sapiens, UniProt P18031).
T1 construct: made in house
T1 sequence (P18031 with tags, fused parts or gaps): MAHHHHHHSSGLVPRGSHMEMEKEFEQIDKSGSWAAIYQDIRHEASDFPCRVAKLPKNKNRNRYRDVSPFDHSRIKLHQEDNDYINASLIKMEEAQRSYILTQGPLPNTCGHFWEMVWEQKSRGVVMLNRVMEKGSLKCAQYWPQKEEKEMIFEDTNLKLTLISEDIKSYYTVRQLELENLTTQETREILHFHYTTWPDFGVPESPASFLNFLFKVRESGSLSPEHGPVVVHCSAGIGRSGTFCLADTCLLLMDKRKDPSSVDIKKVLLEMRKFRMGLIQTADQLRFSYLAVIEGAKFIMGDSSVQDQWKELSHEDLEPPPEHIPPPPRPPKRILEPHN
In words: Mobility shift assay (MSA) to determine potency of PTPN1 inhibitors. Particulars: 0.5 nM enzyme, 2 μM substrate. The class given is biochemical. The essentials:
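His-tagged full-length human PTPN1 (0.5 nM) preincubated with compound 10 min at room temperature in pH 7.5 HEPES buffer with EGTA, EDTA, Tween 20 and DTT. Dephosphorylation of 2 μM fluorescent phospho-insulin-receptor peptide over 10 min measured by mobility shift. IC50 from % inhibition across a 12-point, 1:3 dilution series.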

The target of assay [2] is T2, His tagged PTPN2 (TC45) protein (Homo sapiens, UniProt P17706).
T2 construct: made in house
T2 sequence (P17706 with tags, fused parts or gaps isoform P17706-2): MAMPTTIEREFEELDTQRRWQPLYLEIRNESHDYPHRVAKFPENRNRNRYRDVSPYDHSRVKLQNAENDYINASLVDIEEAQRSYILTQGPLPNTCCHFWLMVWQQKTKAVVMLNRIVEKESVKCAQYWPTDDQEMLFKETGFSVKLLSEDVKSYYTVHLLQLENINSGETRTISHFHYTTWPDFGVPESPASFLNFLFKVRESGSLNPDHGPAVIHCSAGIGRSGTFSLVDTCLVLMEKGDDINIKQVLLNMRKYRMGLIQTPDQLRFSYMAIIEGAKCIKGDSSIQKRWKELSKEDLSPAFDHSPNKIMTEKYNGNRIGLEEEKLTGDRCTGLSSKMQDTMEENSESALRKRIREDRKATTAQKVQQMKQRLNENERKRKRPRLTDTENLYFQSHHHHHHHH
Put plainly: Mobility shift assay (MSA) to determine potency of PTPN2 inhibitors. To be noted: 0.5 nM enzyme, 2 μM substrate. The class given is biochemical. The essentials: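 His-tagged human PTPN2 (TC45), 0.5 nM, preincubated 10 min at room temperature with compound (12-point, 1:3 dilutions) in HEPES pH 7.5 buffer with EGTA, EDTA, Tween 20 and DTT. Then 2 μM OG488-labelled phospho-insulin-receptor peptide was added for 10 min and quenched. % conversion was read by mobility shift, and IC50 came from % inhibition.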

One may read the IC50 as the point on the concentration scale where inhibition reaches its midpoint. Turning to `O=C1CN(c2c(O)cc3c(c2F)CN(CCCCCC(F)(F)F)CC3)S(=O)(=O)N1` [Compound 161], the IC50 in assay [1] was 0.01 to 0.1 µM; in assay [2], 0.001 to 0.01 µM.
For the molecule `O=C1CN(c2c(O)cc3c(c2F)C[C@H](NCc2cnco2)CC3)S(=O)(=O)N1` [Compound 364, 5-[(7R)-1-fluoro-3-hydroxy-7-{[(1,3-oxazol-5-yl)methyl]amino}-5,6,7,8-tetrahydronaphthalen-2-yl]-1λ^6,2,5-thiadiazolidine-1,1,3-trione], the IC50 in assay [1] and in assay [2] was 0.01 to 0.1 µM in each case.
On to `CC(C)(O)CCN1CCc2cc(O)c(N3CC(=O)NS3(=O)=O)c(F)c2C1` [Compound 170], for which the IC50 in assay [1] is > 0.1 µM; in assay [2] it was 0.01 to 0.1 µM.
For the molecule `CCCCN[C@@H]1CCc2cc(O)c(N3CC(=O)NS3(=O)=O)c(F)c2C1` [Compound 410, 5-[(7R)-7-(butylamino)-1-fluoro-3-hydroxy-5,6,7,8-tetrahydronaphthalen-2-yl]-1λ^6,2,5-thiadiazolidine-1,1,3-trione], the half-maximal inhibitory concentration (IC50) in assay [1] and in assay [2] was 0.001 to 0.01 µM throughout.
Take `O=C1CN(c2c(O)cc3c(c2F)CN(CCC2CCOCC2)CC3)S(=O)(=O)N1` [Compound 214]: the IC50 in assay [1] and in assay [2] was 0.01 to 0.1 µM in each case.
For `C[C@H](N)CN1CCc2cc(O)c(N3CC(=O)NS3(=O)=O)c(F)c2C1` [Compound 245], the IC50 in assay [1] and in assay [2] was 0.01 to 0.1 µM in each case.
`N[C@H](CCC1CCCCC1)C(=O)N1CCc2cc(O)c(N3CC(=O)NS3(=O)=O)c(F)c2C1` [Compound 250]: the IC50 in assay [1] and in assay [2] was 0.01 to 0.1 µM each time.
Regarding `Cc1nn(CC(F)F)c(C)c1CCN1Cc2c(cc(O)c(N3CC(=O)NS3(=O)=O)c2F)C(F)(F)C1` [Compound 226], the IC50 in assay [1] and in assay [2] was 0.01 to 0.1 µM in each case.
For `CC(C)(CN[C@@H]1CCc2cc(O)c(N3CC(=O)NS3(=O)=O)c(F)c2C1)CN1CCCC1` [Compound 358, 5-[(7R)-7-{[2,2-dimethyl-3-(pyrrolidin-1-yl)propyl]amino}-1-fluoro-3-hydroxy-5,6,7,8-tetrahydronaphthalen-2-yl]-1λ^6,2,5-thiadiazolidine-1,1,3-trione], the IC50 in assay [1] and in assay [2] was 0.01 to 0.1 µM each time.
As for `CC1(C)CCc2cc(O)c(N3CC(=O)NS3(=O)=O)c(F)c2O1` [Compound 113], the concentration for half-maximal inhibition (IC50) in assay [1] and in assay [2] was > 0.1 µM throughout.
Consider `O=C1CN(c2c(O)cc3c(c2F)CN(CC2CC4(CC4)C2)CC3)S(=O)(=O)N1` [Compound 168], for which the IC50 in assay [1] and in assay [2] was 0.01 to 0.1 µM in each case.
Turning to `O=C1CN(c2c(O)cc3c(c2F)CN(CCCc2ccc(F)cc2)CC3)S(=O)(=O)N1` [Compound 299], the half-maximal inhibitory concentration (IC50) in assay [1] was 0.01 to 0.1 µM; in assay [2] it was 0.001 to 0.01 µM.
Take `CC(C)(C)CNC(=O)N1CCc2cc(O)c(N3CC(=O)NS3(=O)=O)c(F)c2C1` [Compound 277]: the values for the IC50 in assay [1] and in assay [2] were 0.01 to 0.1 µM and 0.001 to 0.01 µM, respectively.
For the molecule `COCCNC(=O)N1CCc2cc(O)c(N3CC(=O)NS3(=O)=O)c(F)c2C1` [Compound 282], the IC50 in assay [1] and in assay [2] was 0.01 to 0.1 µM throughout.
Consider `O=C1CN(c2c(O)cc3c(c2F)C[C@H](NCc2nccs2)CC3)S(=O)(=O)N1` [Compound 367, 5-[(7R)-1-fluoro-3-hydroxy-7-{[(1,3-thiazol-2-yl)methyl]amino}-5,6,7,8-tetrahydronaphthalen-2-yl]-1λ^6,2,5-thiadiazolidine-1,1,3-trione], for which the 50% inhibitory concentration (IC50) in assay [1] and in assay [2] was 0.01 to 0.1 µM each time.
For the molecule `O=C1CN(c2c(O)cc3c(c2F)C[C@H](NCC2COC2)CC3)S(=O)(=O)N1` [Compound 366, 5-[(7R)-1-fluoro-3-hydroxy-7-{[(oxetan-3-yl)methyl]amino}-5,6,7,8-tetrahydronaphthalen-2-yl]-1λ^6,2,5-thiadiazolidine-1,1,3-trione], the half-maximal inhibitory concentration (IC50) in assay [1] and in assay [2] was 0.01 to 0.1 µM each time.
In the case of `C[C@@H]1C[C@@H](N)Cc2c1cc(O)c(N1CC(=O)NS1(=O)=O)c2F` [Compound 397, 5-[(5R,7R)-7-amino-1-fluoro-3-hydroxy-5-methyl-5,6,7,8-tetrahydronaphthalen-2-yl]-1λ^6,2,5-thiadiazolidine-1,1,3-trione], the IC50 in assay [1] and in assay [2] was > 0.1 µM throughout.
For `N#CC1CC1CN[C@@H]1CCc2cc(O)c(N3CC(=O)NS3(=O)=O)c(F)c2C1` (stereo partly drawn) [Compound 353, 2-({[(2R)-8-fluoro-6-hydroxy-7-(1,1,4-trioxo-1λ^6,2,5-thiadiazolidin-2-yl)-1,2,3,4-tetrahydronaphthalen-2-yl]amino}methyl)cyclopropane-1-carbonitrile], the IC50 lay within 0.01 to 0.1 µM in assay [1] and 0.001 to 0.01 µM in assay [2].
As for `O=C1CN(c2c(O)cc3c(c2F)CN(CCCC2CCNCC2)CC3)S(=O)(=O)N1` [Compound 219], the IC50 in assay [1] and in assay [2] was 0.01 to 0.1 µM throughout.
On to `CC(C)(C)OC(=O)N1CCC(CN[C@@H]2COc3cc(O)c(N4CC(=O)NS4(=O)=O)c(F)c3C2)CC1` [Compound 384, tert-butyl 4-({[(3S)-5-fluoro-7-hydroxy-6-(1,1,4-trioxo-1λ^6,2,5-thiadiazolidin-2-yl)-3,4-dihydro-2H-1-benzopyran-3-yl]amino}methyl) piperidine-1-carboxylate], for which the IC50 in assay [1] and in assay [2] was 0.01 to 0.1 µM each time.
In the case of `O=C1CN(c2c(O)cc3c(c2F)CN(CCCC2CCOCC2)CC3)S(=O)(=O)N1` [Compound 196], the IC50 in assay [1] and in assay [2] was 0.01 to 0.1 µM each time.
Regarding `O=C1CN(c2c(O)cc3c(c2F)CC(O)CC3)S(=O)(=O)N1` (stereo not shown) [Compound 335, 5-(1-fluoro-3,7-dihydroxy-5,6,7,8-tetrahydronaphthalen-2-yl)-1λ^6,2,5-thiadiazolidine-1,1,3-trione], the IC50 in assay [1] and in assay [2] was 0.01 to 0.1 µM throughout.
Regarding `CC(C)(C)OC(=O)N[C@@H]1CCc2cc(O)c(N3CC(=O)NS3(=O)=O)c(F)c2C1` [Compound 341, tert-butyl [(2R)-8-fluoro-6-hydroxy-7-(1,1,4-trioxo-1λ^6,2,5-thiadiazolidin-2-yl)-1,2,3,4-tetrahydronaphthalen-2-yl]carbamate], the IC50 in assay [1] and in assay [2] was 0.01 to 0.1 µM each time.
`CC(O)CCN[C@@H]1CCc2cc(O)c(N3CC(=O)NS3(=O)=O)c(F)c2C1` (stereo partly drawn) [Compound 369, 5-{(7R)-1-fluoro-3-hydroxy-7-[(3-hydroxybutyl)amino]-5,6,7,8-tetrahydronaphthalen-2-yl}-1λ^6,2,5-thiadiazolidine-1,1,3-trione]: the concentration for half-maximal inhibition (IC50) in assay [1] fell in the range of 0.01 to 0.1 µM; in assay [2], 0.001 to 0.01 µM.
Regarding `NC[C@H]1Cc2cc(O)c(N3CC(=O)NS3(=O)=O)c(F)c2C1` (single isomer, unassigned) [Compound 407], the IC50 in assay [1] and in assay [2] was 0.01 to 0.1 µM each time.
For `O=C1CN(c2c(O)cc3c(c2F)C[C@H](NCc2cccnn2)CC3)S(=O)(=O)N1` [Compound 349, 5-[(7R)-1-fluoro-3-hydroxy-7-{[(pyridazin-3-yl)methyl]amino}-5,6,7,8-tetrahydronaphthalen-2-yl]-1λ^6,2,5-thiadiazolidine-1,1,3-trione], the IC50 in assay [1] and in assay [2] was 0.01 to 0.1 µM in each case.
